Results: patent publication US12700475B2, “Systems and methods for dissecting heterogeneous cell populations” (California Institute of Technology, priority 2018, dated 2026)

What was measured:
[1] = tested on: neural progenitor subpopulation from the ventricular zone (VZ); test: High-concentration additional signals on ventricular zone cells: neural progenitor subpopulation aligned to VZ-D0, differential genes by L1-norm; format: cell-based, mouse
Method: Having seen that these signals can control population structure, whether these additional signals induced major transcriptional changes in neural stem cells was determined. Further, whether any changes restored the functional defects observed in response to in vitro culture was determined. To learn these transcriptional changes, a new experiment was performed using high concentrations of signaling factors for two reasons: 1) the original combinatorial screen required the cells to be fixed in methanol, which may disrupt gene expression values thus making comparing that data directly to the in vivo data difficult and 2) the original combinatorial screen suffered from low sample number for some of the conditions, due to variation in proliferation rate. This new experiment was performed by adding high concentrations of additional signals (BMP4 (20 ng/mL), CHIR (3 uM), PDGF-AA (20 ng/mL) and DLL1 (surface-coated)) in addition to high concentrations of EGF/FGF immediately after dissociation of cells from the VZ, and all cells were grown for five days in these signal cocktails before profiling.
First, models were built for all of the new samples, aligned each to the VZ-D0 sample (which served as the control), and then only the subpopulations across all samples that aligned to the neural progenitor population were pulled out (FIG. 39B). By plotting the Jeffreys Divergence between these aligned populations (FIG. 39C), all the in vivo populations (E15, E18, and VZ-D0) were seen to be close to each other, while in vitro populations were very distant (VZ-D18 and ivNSC).
To confirm this possibility, the genes that were differentially expressed in the BMP4-, DLL-, PDGF-, and CHIR-containing cells were examined, and these genes were compared to the genes discovered in FIG. 36A-36I. […] By contrast, CHIR only rescued 3 of the lost genes, while DLL and PDGF had only one differentially regulated gene each (FIG. 39D).
Normally in development, these neural progenitors give rise to neurons that form six distinct layers in the cortex. These cortical layers have distinct functions, connectivity patterns, and gene expression patterns, which have been characterized in the literature. The gene expression patterns of these layer-specific genes were examined in neural progenitor populations aligned across all samples (FIGS. 39H-39I). Expression of these genes, while noisy, was very extensive in the in vivo populations, but that culture in vitro erased their expression.
Neuroprogenitors are dissociated from the combined cortex, hippocampus and ventricular zone of E18 mice (Brainbits). After dissociation and resuspension of the cells in NPgrow, cells were counted and plated onto ultra-low attachment 100 mm culture plates (Corning) at one million cells per plate in 10 mL of NPgrow supplemented with 1% Penicillin-Streptomycin. Cells were cultured at 37° C. and 5% CO2 and supplemented medium was changed every 3 to 4 days. In some experiments, subventricular zone (SVZ) stem cells were derived with supplemental factors during derivation. PDGF-AA and BMP4 (Peprotech) were used at […], and 20 ng/mL. CHIR99021 (Stem Cell) was used at 3 uM. DLL1 ligand was coated onto tissue culture plastic for one hour before plating cells.
For each gene, two empirical distributions P1(g), P2(g), one for each subpopulation, were determined. These distributions were discretized over identical histogram binnings, a, over the gene's entire range of expression, Ω. Then the L1 distance was defined as: d=sign(g2−g1)Σa∈Ω∥P1(a)−P2(a)∥1, where g1 and g2 denote the respective means of subpopulations 1 and 2. […] The L1 distance ranged from −2 to +2, both of which corresponded to completely non-overlapping distributions. Genes with L1 distances of high magnitude (≳0.5) always had distributions which, by eye, were in obvious agreement with the labeled directionality. […] Query.

[2] = tested on: neural stem cells / progenitor subpopulations from E18 mouse brain; test: Combinatorial signal screen on cells dissociated from the brain: LLR ranking, query, multinomial logistic regression of subpopulation abundances; format: cell-based; settings: for log-likelihood ratio (LLR) score against control population: control 20 ng/mL EGF/FGF
Method: Next, whether and how signaling interventions can pre-emptively bias the transcriptional state of neural stem cells, potentially restoring lost functionality, were determined. Given the finding that transcriptional changes happened in less than three days after in vitro culture, signals were added immediately after dissociation from the brain. Signals known to be important in neural stem cell differentiation into astrocytes (BMP4), neurons (Wnt pathway through CHIR activation), or oligodendrocytes (PDGF-AA), were chosen. A combinatorial screen, in which these signals were added together with EGF/FGF at varying concentrations to dissociated cells from the brain, were performed. The cells were grown for 5 days before profiling. To profile all of these samples, a multiplexing approach, in which cells were methanol fixed and then covalently labeled with a separate exogenous DNA barcode for each experimental condition, was used. A total of 8691 cells were profiled across 19 conditions [See Methods—Experimental multiplexing using Clicktags in this example].
First, how the populations responded at a high-level were examined by using the PopAlign framework to build new models of populations, and the populations were ranked against a control population using a Log-likelihood ratio score (FIG. 38A). In this case, the control population was defined as the 20 ng/mL EGF/FGF condition, which is the concentration of growth factors normally used to propagate neural stem cells in culture. The log-likelihood ratio score is a single metric that measures the extent to which an entire population model diverges from a control population.
To investigate this more deeply, how the population structure of these progenitor cells responded to the signaling cues was determined. For this analysis the query function [See Methods—Query in this example] of the modeling framework was used to score all cells in each sample using a standard model built from the control population. For this combinatorial screen, some conditions suffered from poor sampling (roughly 100 cells vs. 1000 cells for most samples) due to variation in proliferation rates. Thus, querying all samples using the same model was more robust than building separate models (which can be of poor quality with severe undersampling). The first 3 principal components (PCs) were used as the feature vectors in order to improve the sampling within the gene expression space.
In this new analysis, the population were segmented into more fine-grained subpopulations (FIG. 38B). While there was a committed neuroblast population, the neural progenitor population now split into three subpopulations: (1) a proliferating progenitor (PP) population that actively expressed mitotic genes, (2) a non-proliferating progenitor population (NPP), as well as (3) a basal progenitor (BP) that only expressed the progenitor program (Prog), but not glial genes like ALDOC or SPARCL1. Using the control model, individual cells from each sample were scored and assigned into one of the four subpopulations, and abundances of each individual subpopulation across all experimental samples were (FIG. 38D).
To dissect how the abundances of these individual populations responded to signals, a multinomial logistic regression analysis was performed. Multinomial logistic regression models were used to determine the probability of each cell belonging to one of K mutually exclusive classes (in this case, the four subpopulations defined above) based on m independent predictor variables (in this case, the concentrations of each signal) [See Methods—Multinomial logistic regression in this example].
By examining the regression coefficients β, the relationship between each signal and how the signal regulates the proportions of each cell type can be determined. Importantly, the regression model only computed coefficients for K−1 of the outcome classes, while the K^th class was treated as a reference. […]

[3] = tested on: primary human peripheral blood mononuclear cells (PBMCs); test: PBMC signaling experiment: single-cell mRNA-seq with PopAlign alignment to the reference PBMC sample; format: cell-based; settings: 1 ng/mL, 13 hours
Method: One non-limiting application of PopAlign is to study heterogeneous cell populations in the human body as they respond to environmental change, drug treatments, and disease. The human immune system is an extremely heterogeneous physiological system that is central for disease and cell engineering applications. As a test case, PopAlign was tested for its ability to identify subtype-specific signaling responses in a complex mixture of primary human immune cells. Thus, primary human peripheral blood mononuclear cells (PBMCs) (FIG. 17A) were treated with two lymphokines—granulocyte-macrophage colony-stimulating factor (GM-CSF) (FIG. 17C) and interferon-gamma (IFNG) (FIG. 17D) that are known to have a specific impact on monocytes (See Experimental Methods). […] In the reference PBMCs, five independent cell densities (FIG. 17A) were identified and classified using canonical markers from the literature (FIG. 17B). The signal treated cell-populations (FIGS. 17C-17D) were aligned to the PBMC data (FIG. 17A), finding that, for both signals, the monocyte populations (mixtures PBMC-1, PBMC-3) had the largest shifts in their average gene expression state (|Δμ|>0.04) (FIG. 17F). While T-cell abundances changed (numbers), their mean cell states (μ) had the lowest magnitude of gene expression shift. For immune cell experiments, the independent mixture components were classified as effector T cells (CD3+/CD57+), naive T-cells(CD3+/CD28+), erythrocytes (HBB+), canonical monocytes (CD14+/CD16low), and nonclassical monocytes(CD14low/CD16++) (FIG. 16E). Populations in the test samples—GM-CSF (FIG. 16B) and IFNG (FIG. 15C)—were aligned to the reference populations (control) by finding pairs of components that minimize the Jeffrey's divergence (FIG. 16D). Cryopreserved PBMCs sourced from Hemacare (~10 million cells, source ID: D23127, Lot: 17043194) were thawed in a 37° C. waterbath for 2 minutes after which the cells were transferred to a 15 mL conical tube. Prewarmed RPMI1640 was then added to the 15 mL conical to a final volume of 10 mL and centrifuged for 2 minutes at 300RCF to pellet the cells. Supernatant was removed and cells were resuspended in 10 mL of RPMI1640 supplemented with 10% FBS and 1% pen/strep. The cell suspension was then plated onto a 100 mm low attachment plate and placed in a CO2 incubator at 37° C. for 5 hours for the cells to recover. For each condition, 700,000 cells were aliquoted into a well of a 96 well plate. These cells were cultured for 13 hours under two different conditions: 1) IFN-γ@ 1 ng/mL, 2) GM-CSF 1 ng/mL, each with a single additional replicate. After incubation, the plate was sealed with an aluminum adhesive and centrifuged for 3 minutes at 300RCF. […]

## Cc1c[nH]c(-c2cnc(NCCNc3ccc(C#N)cn3)nc2-c2ccc(Cl)cc2Cl)n1 [CHIR, CHIR99021, reference compound]
[1]; of 190 genes downregulated in ivNSCs vs E18 NProgs, 5 days with high EGF/FGF
  number of genes downregulated in ivNSCs that are re-induced (upregulated) by the signal: 3 genes
[2]; 5 days
  log-likelihood ratio (LLR) score against control population: lowest LLR score
[2]; per unit of signal (unit = maximum: EGF/FGF 20 ng/mL each, CHIR 3 uM), 5 days
  odds ratio, proliferating progenitors (PP) vs non-proliferating progenitors (NPP): 0.6

## GM-CSF: lymphokine signal applied to PBMCs at 1 ng/mL
[3]
  class of transcriptional (signaling) response of canonical and non-canonical monocytes: additive
  gene expression programs altered in monocytes: activating a new gene expression program called Chemokine Secretion/Leukocyte Migration pathway

## IFNG: lymphokine signal applied to PBMCs at 1 ng/mL
[3]
  class of transcriptional (signaling) response of canonical and non-canonical monocytes: convergent
  gene expression programs altered in monocytes: up-regulation of pathways involved in antigen presentation and phagocytosis

## PDGF
[1]; 5 days with high EGF/FGF
  number of differentially regulated genes: one
[2]; per unit of signal (PDGF-AA 20 ng/mL), 5 days
  odds ratio, basal progenitors vs non-proliferating progenitors: 1.75

B1: DLL: DLL1 ligand, surface-coated onto tissue culture plastic (protein, UniProt O00548 18-723, looked up)
Delta-like protein 1: QVWSSGVFELKLQEFVNKKGLLGNRNCCRGGAGPPPCACRTFFRVCLKHYQASVSPEPPCTYGSAVTPVLGVDSFSLPDGGGADSAFSNPIRFPFGFTWPGTFSLIIEALHTDSPDDLATENPERLISRLATQRHLTVGEEWSQDLHSSGRTDLKYSYRFVCDEHYYGEGCSVFCRPRDDAFGHFTCGERGEKVCNPGWKGPYCTEPICLPGCDEQHGFCDKPGECKCRVGWQGRYCDECIRYPGCLHGTCQQPWQCNCQEGWGGLFCNQDLNYCTHHKPCKNGATCTNTGQGSYTCSCRPGYTGATCELGIDECDPSPCKNGGSCTDLENSYSCTCPPGFYGKICELSAMTCADGPCFNGGRCSDSPDGGYSCRCPVGYSGFNCEKKIDYCSSSPCSNGAKCVDLGDAYLCRCQAGFSGRHCDDNVDDCASSPCANGGTCRDGVNDFSCTCPPGYTGRNCSAPVSRCEHAPCHNGATCHERGHRYVCECARGYGGPNCQFLLPELPPGPAVVDLTEKLEGQGGPFPWVAVCAGVILVLMLLLGCAAVVVCVRLRLQKHRPPADPCRGETETMNNLANCQREKDISVSIIGATQIKNTNKKADFHGDHSADKNGFKARYPAVDYNLVQDLKGDDTAVRDAHSKRDTKCQPQGSSGEEKGTPTTLRGGEASERKRPDSGCSTSKDTKYQSVYVISEEKDECVIATEV
modifications: surface-coated
notes: DLL1 ligand, surface-coated onto tissue culture plastic
[1]; 5 days with high EGF/FGF
  number of differentially regulated genes: one

B2: BMP4: signaling factor (Peprotech) important in neural stem cell differentiation into astrocytes (protein, UniProt P12644 293-408, looked up)
Bone morphogenetic protein 4: SPKHHSQRARKKNKNCRRHSLYVDFSDVGWNDWIVAPPGYQAFYCHGDCPFPLADHLNSTNHAIVQTLVNSVNSSIPKACCVPTELSAISMLYLDEYDKVVLKNYQEMVVEGCGCR
[1]; 5 days in culture
  rescue of expression of cortical layer-specific genes in neural progenitors: only signal that could rescue the expression of these genes
[1]; 5 days with high EGF/FGF
  number of genes upregulated in ivNSCs that are suppressed by the signal: 22 genes
[1]; compared to VZ-D5, VZ-D5-CHIR, VZ-D5-DLL, VZ-D5-PDGF
  Jeffreys Divergence of aligned neural progenitor subpopulation to in vivo populations: closest to the in vivo populations
[2]; addition of BMP and low EGF/FGF
  committed neuroblasts (CN) proportion of the population: ~50%
[2]; 5 days
  log-likelihood ratio (LLR) score against control population: lowest LLR score
[2]; per unit of signal (BMP4 20 ng/mL), 5 days
  odds ratio, committed neuroblasts vs non-proliferating progenitors: 2.2
